Molecular target: SARS-CoV PLpro (Severe acute respiratory syndrome coronavirus, UniProt P0C6X7)
Format: cell-based

In the case of CC(=O)Nc1cccc(CNC(=O)C2CCN([C@H](C)c3cccc4ccccc34)CC2)c1 [compound 3e], the “Effect on SARS-CoV PLpro activity in the biosensor assay” value was “blocks”.

— paper PMC5228125 (Scientific Reports, 2017)
